Reference: patent publication US8846746B2, “Pyrazole compound and pharmaceutical use thereof” (Japan Tobacco Inc., priority 2011, dated 2014)

Molecular target: human SGLT1 (Homo sapiens (Human), UniProt P13866)
Test: SGLT1 inhibitory activity: 14C-AMG uptake into CHO-K1 cell line stably expressing human SGLT1
Assay type: cell-based
Conditions: 14C-AMG uptake, CHO-K1 cells expressing human SGLT1
Description: SGLT1 inhibitory activity of a test compound (IC50 value) was calculated based on an amount of intake into a cell of labeled α-methyl-D-glucopyranoside (^14C-AMG) which is transported by SGLT1.
1) Construction of Human SGLT1 Expression Plasmid
A DNA fragment containing human SGLT1, wherein NheI recognition and cleavage sequence was added upstream of a Kozac consensus sequence of the vector; and a stop codon (TAG) and a SalI recognition and cleavage sequence was added just downstream of a coding region of the human SGLT1, was amplified by PCR using pCMV6-hSGLT1 (OriGene) as a template. The purified DNA fragment was cleaved by restriction enzymes NheI and SalI, and the obtained fragment was ligated into pcDNA3.1 (+) which was cleaved by NheI and XhoI to construct human SGLT1 expression plasmid.
2) Establishment of Stable Cell Lines Expressing Human SGLT1
A human SGLT1 expression plasmid pcDNA-hSGLT1 was transfected into CHO-K1 cells by Lipofectamine-2000 (Invitrogen). The cells were cultured in the presence of G418 (Nakalai tesque) and drug-resistant cells were selected. A cell line having the highest S/B ratio of an amount of ^14C-AMG uptake per cell treated by solvent to an amount of ^14C-AMG uptake per cell treated by phlorizin (SGLT inhibitor) was selected from the drug-resistant cells as a stable cell lines expressing human SGLT1.
3) Evaluation of SGLT1 Inhibitory Activity
The stable cell line expressing human SGLT1 was seeded at 5×10^4 cells/well on BioCoat™ Poly-D-Lysine 96 well plate with Lid (Becton Dickinson and Company) and cultured at 37° C. under 5% CO2 overnight. The medium was replaced with 100 μL/well of a Na (−) buffer (140 mM choline chloride, 2 mM KCl, 1 mM MgCl2, 1 mM CaCl2, 10 mM HEPES, 5 mM Tris, pH7.4) followed by incubation for 20 minutes at 37° C. under 5% CO2. After removing the Na (−) buffer, a test compound solution which was prepared from Na (+) buffer (140 mM NaCl, 2 mM KCl, 1 mM MgCl2, 1 mM CaCl2, 10 mM HEPES, 5 mM Tris, pH7.4) containing BSA was added thereto at 40 μL/well. In addition, Na (+) buffer containing 8 kBq of ^14C-AMG and 2 mM AMG was added thereto at 40 μL/well, and was mixed well. Na (−) buffer containing BSA was added to a blank well at 40 μL/well and additionally adding a Na (+) buffer containing 8 kBq of ^14C-AMG and 2 mM AMG, and was mixed well. Cells were incubated for 1 hour at 37° C. under 5% CO2. After the reaction, the cells were washed twice with 100 μL/well of iced wash buffer (100 mM AMG, 140 mM choline chloride, 2 mM KCl, 1 mM MgCl2, 1 mM CaCl2, 10 mM HEPES, 5 mM Tris, pH7.4), then lysed in 50 μL/well of a 0.2N aqueous solution of NaOH. The cell lysate was transferred to OptiPlate96 (Perkin-Elmer) and 100 μL/well of MicroScint-40 (Perkin-Elmer) was dispensed. The radioactivity was counted by TOPCOUNT NXT (Perkin-Elmer).
A data was obtained by deducting the average value (CPM) of blank wells from the average value (CPM) of each treated well. The inhibition ratio (%) was calculated by the following formula: inhibition rate (%)=[(A−B)/A]×100, where A is a data of the solvent control, and B is a data of a test compound.

human SGLT1, sequence (P13866 whole entry): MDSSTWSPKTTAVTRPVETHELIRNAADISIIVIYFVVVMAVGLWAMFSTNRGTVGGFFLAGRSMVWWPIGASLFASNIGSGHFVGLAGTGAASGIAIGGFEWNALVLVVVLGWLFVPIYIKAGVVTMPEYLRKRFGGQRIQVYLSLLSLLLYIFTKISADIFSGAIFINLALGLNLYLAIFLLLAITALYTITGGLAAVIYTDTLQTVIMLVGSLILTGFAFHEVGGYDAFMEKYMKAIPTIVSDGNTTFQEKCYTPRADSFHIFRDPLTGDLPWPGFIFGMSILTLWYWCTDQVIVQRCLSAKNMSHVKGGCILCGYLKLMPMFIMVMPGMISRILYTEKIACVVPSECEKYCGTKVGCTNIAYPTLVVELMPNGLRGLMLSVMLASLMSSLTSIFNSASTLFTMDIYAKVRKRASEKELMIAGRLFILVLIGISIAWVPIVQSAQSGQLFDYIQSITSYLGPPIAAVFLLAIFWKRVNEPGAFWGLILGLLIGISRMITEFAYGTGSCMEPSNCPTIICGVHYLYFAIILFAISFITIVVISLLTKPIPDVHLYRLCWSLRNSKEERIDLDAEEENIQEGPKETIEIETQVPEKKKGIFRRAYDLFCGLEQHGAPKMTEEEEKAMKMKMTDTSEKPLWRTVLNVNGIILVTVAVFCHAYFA

IC50	SMILES
6.3 nM	Cc1ccccc1-n1nc(NC(=O)[C@H]2CNC(=O)C2)cc1-c1cccc(C(F)(F)F)c1 [Example 224]
1.5 nM	CC(C)C(F)(F)c1cccc(-c2cc(NC(=O)[C@H]3CNC(=O)C3)nn2-c2ccccc2)c1 [Example 138]
4.7 nM	C[C@H]1C(=O)NC[C@@H]1C(=O)Nc1cc(-c2cccc(C(F)(F)F)c2)n(-c2ccccc2)n1 [Example 207]
1.4 nM	C[C@H]1C(=O)NC[C@@H]1C(=O)Nc1cc(-c2cccc(C(F)(F)F)c2)n(-c2ccccc2Cl)n1 [Example 203]
40 nM	CCCc1cccc(-c2cc(NC(=O)[C@@H]3CNC(=O)C3)nn2C2CCCC2)c1 [Example 65]
15 nM	CCCc1cccc(-c2cc(NC(=O)[C@@H]3CNC(=O)C3)nn2-c2ccc(F)cc2)c1 [Example 35]
95 nM	CCOc1cccc(-c2cc(NC(=O)[C@H]3CNC(=O)C3)nn2-c2ccccc2)c1 [Example 30]
6.7 nM	Cc1ccc(-n2nc(NC(=O)[C@H]3CNC(=O)[C@@H]3C)cc2-c2cccc(C(F)(F)F)c2)cc1 [Example 231]
12 nM	COC(C)(C)c1cccc(-c2cc(NC(=O)[C@H]3CNC(=O)C3)nn2-c2ccccc2)c1 [Example 82]
9.4 nM	CCCc1cccc(-c2cc(NC(=O)[C@H]3CNC(=O)C3)nn2-c2ccc(Cl)cc2)c1 [Example 36]
6.3 nM	O=C1C[C@@H](C(=O)Nc2cc(-c3cccc(OC(F)(F)F)c3)n(-c3ccccc3F)n2)CN1 [Example 131]
2.3 nM	Cc1ccccc1-n1nc(NC(=O)[C@H]2CNC(=O)[C@@H]2C)cc1-c1cccc(OC(F)(F)F)c1 [Example 223]
17 nM	CCCc1cccc(-c2cc(NC(=O)[C@@H]3CNC(=O)N3C)nn2-c2ccccc2)c1 [Example 125]
3.6 nM	O=C1C[C@@H](C(=O)Nc2cc(-c3cccc(C(F)(F)F)c3)n(-c3ccccc3Cl)n2)CN1 [Example 205]
67 nM	C[C@H]1C(=O)NC[C@@H]1C(=O)Nc1cc(-c2cccc(OC(F)(F)F)c2)n(C2CCC(F)(F)CC2)n1 [Example 198]
23 nM	C[C@H]1C(=O)NC[C@@H]1C(=O)Nc1cc(-c2cccc(OC(F)(F)F)c2)n(C2CCOCC2)n1 [Example 188]

Same assay, conditions: 14C-AMG uptake, CHO-K1 cells stably expressing human SGLT1

IC50	SMILES
3.1 nM	C[C@@H](OCc1cccc(-c2cc(NC(=O)[C@@H]3CNC(=O)C3)nn2-c2ccccc2Cl)c1)C(F)(F)F [Example 475]
290 nM	COC(C)(C)c1cccc(-c2cc(NC(=O)C3CNC(=O)NC3)nn2-c2ccccc2)c1 [Example 271]
6.9 nM	CCCc1cccc(-c2cc(NC(=O)[C@@H]3CNC(=O)C3)nn2-c2cccc(CC(C)C)c2)c1 [Example 496]
22 nM	CCCc1cccc(-c2cc(NC(=O)[C@@H]3CNC(=O)C3)nn2-c2cccc(C#CC(C)(C)C)c2)c1 [Example 495]
23 nM	O=C1C[C@H](C(=O)Nc2cc(-c3cccc(OC(F)(F)F)c3)n(-c3cccc(Cl)c3)n2)CN1 [Example 504]
5.6 nM	COc1cccc(-n2nc(NC(=O)[C@@H]3CNC(=O)C3)cc2-c2cccc(COCC(F)(F)F)c2)c1 [Example 446]
15 nM	CCCc1cccc(-c2cc(NC(=O)[C@@H]3CNC(=O)C3)nn2-c2ccc(F)c(OC)c2)c1 [Example 389]
12 nM	CC(C)(OCc1cccc(-c2cc(NC(=O)[C@@H]3CNC(=O)C3)nn2-c2ccc(Cl)cc2)c1)C(F)(F)F [Example 575]
10 nM	CC(C)(OCc1cc(F)cc(-c2cc(NC(=O)[C@@H]3CNC(=O)C3)nn2-c2ccc(F)cc2)c1)C(F)(F)F [Example 595]
25 nM	O=C1C[C@H](C(=O)Nc2cc(-c3cc(F)cc(COCC(F)(F)F)c3)n(-c3ccc(F)cc3)n2)CN1 [Example 248, (S)-5-oxopyrrolidine-3-carboxylic acid{1-(4-fluorophenyl)-5-[3-fluoro-5-(2,2,2-trifluoroethoxymethyl)phenyl]-1H-pyrazol-3-yl}amide]
8.7 nM	CCOc1cccc(-n2nc(NC(=O)[C@@H]3CNC(=O)C3)cc2-c2cccc(COCC(F)(F)F)c2)c1F [Example 481]
32 nM	O=C1NC[C@H](C(=O)Nc2cc(-c3cccc(COCCC(F)(F)F)c3)n(-c3ccccc3)n2)O1 [Example 337]
3.2 nM	CCCc1cccc(-c2cc(NC(=O)C3CC[S+]([O-])CC3)nn2-c2ccccc2)c1 (stereo not shown) [Example 318]
21 nM	CCCc1cccc(-c2cc(NC(=O)[C@@H]3CNC(=O)C3)nn2-c2ccccc2OC(C)C)c1 [Example 378]
2.2 nM	CCCc1cccc(-c2cc(NC(=O)[C@@H]3CNC(=O)C3)nn2-c2cc(C)ccc2C)c1 [Example 324]
11 nM	O=C1C[C@H](C(=O)Nc2cc(-c3cccc(COCC(F)(F)F)c3)n(-c3cccc(Cl)c3)n2)CN1 [Example 505]
20 nM	CC(C)(C)COCc1cccc(-c2cc(NC(=O)C3CCC(=O)NC3)nn2-c2ccccc2)c1 (single isomer, unassigned) [Example 333]
1.1 nM	CCOc1ccc(F)c(-n2nc(NC(=O)[C@@H]3CNC(=O)C3)cc2-c2cccc(CO[C@H](C)C(F)(F)F)c2)c1 [Example 463]
8.2 nM	CCCc1cccc(-c2cc(NC(=O)[C@@H]3CNC(=O)C3)nn2-c2cccc(C=C(C)C)c2)c1 [Example 493]
19 nM	O=C1C[C@H](C(=O)Nc2cc(-c3cccc(COC(C(F)(F)F)C(F)(F)F)c3)n(-c3ccc(Cl)cc3)n2)CN1 [Example 576]
9.8 nM	O=C1C[C@@H](C(=O)Nc2cc(-c3cccc(COCC(F)(F)F)c3)n(-c3ccccc3)n2)CN1 [Example 280]
48 nM	CCCc1cccc(-c2cc(NC(=O)[C@@H]3CNC(=O)N3CC(F)(F)F)nn2-c2ccccc2)c1 [Example 384]
39 nM	CCCc1cccc(-c2cc(NC(=O)C34CNC(=O)C3C4)nn2-c2ccccc2)c1 (stereo not shown) [Example 249, 4-oxo-3-azabicyclo[3.1.0]hexane-1-carboxylic acid[1-phenyl-5-(3-propylphenyl)-1H-pyrazol-3-yl]amide]

Same assay, conditions: CHO-K1, at 0.1 uM

inhibition at 0.1 µM	SMILES
32%	C[C@@H](OCc1cc(F)cc(-c2cc(NC(=O)[C@H]3CCC(=O)N3)nn2-c2ccccc2)c1)C(F)(F)F [Example 554]
41%	O=C1CC[C@@H](C(=O)Nc2cc(-c3cccc(COCC(F)(F)F)c3)n(-c3ccccc3)n2)N1 [Example 549]
21%	CC(C)NC(=O)c1cccc(-c2cc(NC(=O)[C@@H]3CNC(=O)C3)nn2-c2ccccc2)c1 [Example 431]
49%	C[C@@H](OCc1ccc(F)c(-c2cc(NC(=O)[C@@H]3CNC(=O)C3)nn2-c2ccccc2)c1)C(F)(F)F [Example 427]
-17%	O=C1C[C@H](C(=O)Nc2cc(-c3cccc(COCC(F)(F)F)c3)n(-c3cc(Cl)ccc3F)n2)CN1 [Example 503]
4%	CC(C)(C)C#Cc1cccc(-c2cc(NC(=O)[C@@H]3CNC(=O)C3)nn2-c2ccccc2)c1 [Example 499]
50%	O=C1C[C@H](C(=O)Nc2cc(-c3cccc(OC(F)(F)F)c3)n(-c3ccc(Cl)cc3)n2)CN1 [Example 507]
18%	O=C1C[C@H](C(=O)Nc2cc(-c3cccc(COC4COC4)c3)n(-c3ccccc3)n2)CN1 [Example 542]

Same assay, conditions: CHO-K1, at 0.3 uM

inhibition at 0.3 µM	SMILES
26%	CCCc1cccc(-c2cc(NC(=O)[C@H]3CNC(=O)N3CC(=O)O)nn2-c2ccccc2)c1 [Example 348]
15%	CCCc1cccc(-c2cc(NC(=O)[C@@H]3CNC(=O)N3C(C)C)nn2-c2ccccc2)c1 [Example 327]
